For experiment [1], the system named is GJIC in NRK (Normal Rat Kidney) cells, mainly Cx43. The experiment in a line: Gap junction coupling assay, NRK sender cells (D1-receptor) plus NRK receiver cells (CRE-luciferase), endogenous connexins. It counts as cell-based. The conditions noted are these: for Luciferase response, 50 μM AGA / Luciferase response, 100 μM AGA / Luciferase response, 150 μM AGA / Luciferase response, Vehicle: NRK sender:receiver 1:1, agonist 10 μM, 6½ hours; for Luciferase response, 50 μM AGA: 50 μM AGA added 30 min before; for Luciferase response, 50 μM AGA / Luciferase response, 100 μM AGA / Luciferase response, 150 μM AGA / Luciferase response, Vehicle / Luciferase responses: control = 100%; for Luciferase response, 100 μM AGA: 100 μM AGA added 30 min before; for Luciferase response, 150 μM AGA: 150 μM AGA added 30 min before; for Luciferase response, Vehicle: no AGA (DMSO); for Luciferase responses: NRK sender:receiver 1:1, 10 μM forskolin or 1 μM cAMP, 6 hours.

The test system of experiment [2] is GJIC in CHO (Chinese Hamster Ovary) cells. As to the kind of experiment: Gap junction coupling assay, CHO sender and receiver cells with or without exogenous Cx32. It counts as cell-based. The conditions noted are these: 10 μM, 8 hours, control = 100%, duplicates; for Luciferase response, With exogenous Cx32: CHO transfected with Cx32 DNA; for Luciferase response, No exogenous Cx32: CHO.

Experiment [3] deals with NRK cells. The experiment in a line: CRE-luciferase response in NRK receiver cells only (check for endogenous D1-receptor). Conditions: for Luciferase responses: 10 μM, 6½ hours, control = 100%. It counts as cell-based, rat. How it is done: These experiments are performed to investigate whether the NRK cells express the D1-receptor endogenously. If NRK cells express D1 receptor endogenously, the receiver cells would be able to generate cAMP and produce a chemiluminescent signal independently of GJIC and the endogenous messenger generated by the sender cell. So only receiver cells are used for this experiment.
Cells are transfected with 5 μg CRE-luciferase DNA and 500 ng pRL-SV40 DNA per 6 cm dish. Each well of a 24-well plate received 250 μL cell suspension and 250 μL media, or approx. 25 000 cells. Cells are stimulated with 10 μM forskolin or apomorphine during 6½ hours before harvesting.

Experiment [4] deals with Cx32-mediated GJIC in HeLa cells. As to the kind of experiment: Gap junction coupling assay, HeLa sender and receiver cells with or without transfected Cx32. Conditions: 10 μM, duplicates; for Luciferase response, Cells transfected with Cx32: 4.8 μg Cx32 DNA; for Luciferase response, Cells transfected with Cx32 / Luciferase response, Cells not transfected with Cx32: 1 ml sender + 0.2 ml receiver cells, percentage of control; for Luciferase response, Single dose Cx32: sender cells 2.4 μg Cx32 DNA; for Luciferase response, Single dose Cx32 / Luciferase response, Double dose Cx32: control = 100%; for Luciferase response, Double dose Cx32: sender cells 4.8 μg Cx32 DNA. It counts as cell-based, human.

The test system of experiment [5] is HeLa cells. As to the kind of experiment: CRE-luciferase response in HeLa receiver cells only. It counts as cell-based, human. The conditions noted are these: n=2, control = 100%. As for the experimental part:
This is conformed by an experiment in which apomorphine is added to wells containing only receiver cells. As predicted, there is no elicited response. Luciferase activity values are 100.0±6.5% (control, n=2) and 75.9±3.0% (apomorphine, n=2).

The conditions of experiment [6]: IV injection of glucagon in humans; cited from earlier work.

Structures can show the parent of a compound that is named as a salt.

Regarding `CC1(C)[C@@H](O)CC[C@]2(C)[C@H]3C(=O)C=C4[C@H]5C[C@@](C)(C(=O)O)CC[C@]5(C)CC[C@@]4(C)[C@]3(C)CC[C@@H]12` [18-alpha-glycyrrhetinic acid], in experiment [1] (NRK, 50, 100, 150 μM AGA, 10 μM apomorphine), the “effect on the apomorphine-induced chemiluminescent signal (GJIC)” value is listed as “able to decrease this effect in a concentration-dependent manner”. In experiment [1] (NRK, 50, 100, 150 μM AGA, 10 μM forskolin), the “effect on the response to forskolin (independent of GJIC)” value is recorded as “unaffected”.

Turning to `CN1CCc2cccc3c2[C@H]1Cc1ccc(O)c(O)c1-3` [Apomorphine, Apomorphine hydrochloride], in experiment [2], the “Luciferase response, With exogenous Cx32” value stood at 302.2 ± 2.2% and the “Luciferase response, No exogenous Cx32” value is 222.6 ± 22.6%. Further, in experiment [3], the Luciferase responses is recorded as 124.8%±6.8. For the same molecule, in experiment [4], the “Luciferase response, Cells transfected with Cx32” value was determined as 217.5 ± 3.0%; the “Luciferase response, Cells not transfected with Cx32” value was 109.5 ± 1.1%; the “Luciferase response, Single dose Cx32” value is given as 121.1 ± 7.2%; the “Luciferase response, Double dose Cx32” value is listed as 176.5 ± 8.1%. In experiment [5], this molecule displayed a Luciferase activity values of 75.9±3.0%. The “increase over background of the chemiluminescent signal” value in experiment [1] (NRK sender:receiver 1:1, 10 μM apomorphine) is given as “three-fold increase”. Moreover, in experiment [1], the “Luciferase response, 50 μM AGA” value came to 156.0 ± 8.9%; the “Luciferase response, 100 μM AGA” value was determined as 137.6 ± 9.3%; the “Luciferase response, 150 μM AGA” value turned out to be 109.7 ± 8.0%; the “Luciferase response, Vehicle” value is on record as 297.5%. Further, the “Receiver Cell Response” value in experiment [1] (NRK sender:receiver 5:1, 6 hours, buffer = 100%, mean±SEM of 3) is given as 324 ± 14.4%.

Turning to `C=C[C@@]1(C)CC(=O)[C@]2(O)[C@@]3(C)[C@@H](O)CCC(C)(C)[C@@H]3[C@H](O)[C@H](OC(C)=O)[C@@]2(C)O1` [Forskolin, forskolin], in experiment [2], the “Luciferase response, With exogenous Cx32” value turned out to be 356.5 ± 21.8% and the “Luciferase response, No exogenous Cx32” value turned out to be 701.9 ± 0.0%. Further, the “increase in chemiluminescent signal” value in experiment [3] (10 μM forskolin) was “more than 8 fold”. Further, the Luciferase responses in experiment [3] is 876.6%±64.1. Further, in experiment [4], the “Luciferase response, Cells transfected with Cx32” value was found to be 254.6 ± 113.3%; the “Luciferase response, Cells not transfected with Cx32” value is recorded as 272.5 ± 40.9%; the “Luciferase response, Single dose Cx32” value was 139.0 ± 14.3%; the “Luciferase response, Double dose Cx32” value was 195.1 ± 18.2%. In experiment [1], the Luciferase responses was determined as 669.3±56.8%; the “Luciferase response, 50 μM AGA” value was 732.6 ± 52.2%; the “Luciferase response, 100 μM AGA” value turned out to be 669.9 ± 18.3%; the “Luciferase response, 150 μM AGA” value amounted to 685.8 ± 32.0%. In addition, in experiment [1], the “Luciferase response, Vehicle” value came to 581.3%.

Turning to `Nc1ncnc2c1ncn2[C@@H]1O[C@@H]2COP(=O)(O)O[C@H]2[C@H]1O` [cAMP, cyclic adenosine monophosphate], the Luciferase responses in experiment [1] came out at 87.5±5.8%.

For the molecule glucagon, the “plasma levels of cAMP” value in experiment [6] was “up to 200 nM”.
